# How the values were obtained:
# [1] = test system: A375 human melanoma xenografts; assay: A375 human melanoma xenograft study 1, tumor growth delay method; assay type: in vivo, athymic nude mice
# Source text: The following study evaluates two intravenous formulations according to the present invention against human tumor xenografts in athymic nude mice. The study used the A375 human melanoma xenograft model to compare the in vivo antitumor efficacy of I.V. 9-nitro-camptothecin, in vehicles containing IDD-P which provides a particulate suspension of 9-nitro-camptothecin, and IDD-D which provides a droplet suspension of 9-nitro-camptothecin, to the efficacy of oral 9-nitro-camptothecin and intraperitoneal CAMPTOSAR®, HYCAMTIN®, and DTIC®. Examples 1 and 2 describe the compositions of IDD-P (FIG. 1; formulation 1-F) and IDD-D respectively.
# In order to assess antitumor efficacy, groups of athymic nude mice (n=10) bearing ˜72-mg A375 melanomas were treated intravenously on the 5/2/5 schedule with 9-nitro-camptothecin in IDD-P at 3.0 mg/kg or 1.5 mg/kg and 9-nitro-camptothecin in IDD-D at 2.0 mg/kg or 1.0 mg/kg.
# Female nude mice were 16 weeks of age (NCR-nuJBr; Taconic Farms) for the A375 study. The mice were fed ad libitum water (reverse osmosis, 1 ppm Cl) and autoclaved Prolab NIH-31 M/5% Rodent Diet consisting of 18% protein, 5% fat, 6% fiber, and 8% ash. Mice were housed in static microisolators on a 12-hour light cycle at 21-22° C. (70-72° F.) and 40%-60% humidity. The animal care and use program is AAALAC International accredited and specifically follows and complies with the recommendation of the National Research Council's Guide for the Care and Use of Laboratory Animals.
# An A375 melanoma fragment (1 mm 3) was implanted subcutaneously in the flank of each nude mouse. When the tumors reached the 60-112 mg size range, the mice were sorted into treatment groups (on Day 1) such that the group mean tumor sizes ranged from 71.3 mg-72.5 mg. Estimated tumor weight was calculated using the formula: [formula]
# IDD-P with a mean particle size of […] and IDD-D with a mean particle size of […] were prepared for the study by RTP Pharma Inc. For this, the 9-nitro-camptothecin suspensions were diluted with water and vehicle to provide doses of 3 mg/kg and 1.5 mg/kg in 33% IDD-P, and doses of 2 mg/kg and 1 mg/kg in 100% and 50% IDD-D, respectively. After dilution, 9-nitro-camptothecin suspensions were mixed thoroughly by gentle agitation and stored at 2-8° C. For its oral formulation, 9-nitro-camptothecin was dissolved in DMA (N,N-dimethylacetamide, SIGMA) and diluted with D5W to yield a final DMA concentration of 3%. CAMPTOSAR®, DTIC®, and HYCAMTIN® were obtained as the marketed drugs and solutions were prepared fresh on the day of dosing. […]
# The tumor growth delay (TGD) method was used to assess efficacy. Tumor dimensions were measured twice weekly until the experiment was terminated on Day 62. […]
# [2] = Evaluation of toxicity in the A375 melanoma study; assay type: in vivo, athymic nude mice; conditions: Group 7: 150 mg/kg I.P., qd×5
# Protocol: Volumes of 0.20 ml per 20-g mouse, body-weight adjusted, were administered once daily. Tumor-bearing athymic nude mice were matched on Day 1 into 13 groups of ten animals and drug administration was initiated. The I.V. formulations of 9-nitro-camptothecin were given once daily on a 5/2/5 schedule as shown in the protocol summary shown in FIG. 4. Oral 9-nitro-camptothecin doses were given on a q3d×4 schedule (Days 1, 4, 8, and 11). Three reference drugs were administered I.P.: CAMPTOSAR® was given in three doses at weekly intervals (qwk×3); HYCAMTIN® was given in four doses at four-day intervals (q4d×4); and DTIC® was given in five consecutive daily doses (qd×5). The tumor growth control group for these reference treatments received no treatment (Group 1). The 9-nitro-camptothecin vehicle: 33.3% IDD-P, 100% IDD-D, and 3% DMA, was administered to vehicle control Groups 2-4, respectively.
# The maximum tolerated dose (MTD), as defined by the NCI, is the highest dose at which no more than 10% of the animals die and the group mean body-weight loss is no more than 20%. Body weights were measured daily for four or five days and then twice weekly thereafter until the experiments were terminated on Day 62 of the study. […] Because mice are not tagged for MTD studies, only the mean group body weights recorded in the appended raw data are significant in those studies.
# [3] = i.v., clinical trials; cited from earlier work
# [4] = target: human serum albumin (HSA) (Homo sapiens, UniProt P02768); conditions: PBS at pH 7.4; cited from earlier work
# human serum albumin (HSA), sequence (P02768 25-609): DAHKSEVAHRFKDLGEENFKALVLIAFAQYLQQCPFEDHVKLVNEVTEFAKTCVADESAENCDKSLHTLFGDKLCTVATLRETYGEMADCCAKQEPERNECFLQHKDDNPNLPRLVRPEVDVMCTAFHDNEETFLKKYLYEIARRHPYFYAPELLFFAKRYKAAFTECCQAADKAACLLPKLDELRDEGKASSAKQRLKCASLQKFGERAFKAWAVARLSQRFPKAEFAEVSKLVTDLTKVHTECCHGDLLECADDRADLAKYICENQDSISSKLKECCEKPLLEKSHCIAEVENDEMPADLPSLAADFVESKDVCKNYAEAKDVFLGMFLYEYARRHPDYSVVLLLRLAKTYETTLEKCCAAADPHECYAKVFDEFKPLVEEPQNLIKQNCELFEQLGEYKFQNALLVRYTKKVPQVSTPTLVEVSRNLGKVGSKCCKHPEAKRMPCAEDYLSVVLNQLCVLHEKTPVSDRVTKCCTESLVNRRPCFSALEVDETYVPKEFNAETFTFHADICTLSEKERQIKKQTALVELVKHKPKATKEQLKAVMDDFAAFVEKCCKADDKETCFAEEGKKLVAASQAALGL
structure (smiles),measurement,setting,value
"CCc1c2c(nc3ccc(OC(=O)N4CCC(N5CCCCC5)CC4)cc13)-c1cc3c(c(=O)n1C2)COC(=O)[C@]3(O)CC [CAMPTOSAR®, irinotecan]",62-day survivors (of 10 mice),"[1]; Group 5: 100 mg/kg I.P., qwk×3",one
same,complete regression (CR) responses on Day 62,"[1]; Group 5: 100 mg/kg I.P., qwk×3, 100 mg/kg",single and one
"CN(C)/N=N/c1[nH]cnc1C(N)=O [DTIC®, dacarbazine]",toxic deaths (of 10 mice),[2],one and One
"CC[C@@]1(O)C(=O)OCc2c1cc1n(c2=O)Cc2cc3c(CN(C)C)c(O)ccc3nc2-1 [HYCAMTIN®, topotecan]",62-day survivors (of 10 mice),"[1]; Group 6: 10 mg/kg I.P., q4d×4",one
same,complete regression (CR) responses on Day 62,"[1]; Group 6: 10 mg/kg I.P., q4d×4, 10 mg/kg",single and one
CC[C@@](O)(C(=O)[O-])c1cc2n(c(=O)c1CO)Cc1cc3ccccc3nc1-2.[Na+] [Sodium camptothecin],clinical activity,[3],antitumor activity
same,clinical side effects,[3],unpredictable side effects such as myelosuppression and hemorrhagic cystitis
"CC[C@@]1(O)C(=O)OCc2c1cc1n(c2=O)Cc2cc3ccccc3nc2-1 [camptothecin, 20(S)-camptothecin]",affinity of HSA for the carboxylate form relative to the α-hydroxy lactone form,[4],150 fold

# From patent publication US6509027B2, “Injectable pharmaceutical composition comprising coated particles of camptothecin” (priority 2001, dated 2003)
